Source: patent US20200113852A1, “METHODS OF PATIENT SELECTION AND TREATING TRXR- OR PRDX-OVEREXPRESSED CANCERS” (TRIACT THERAPEUTICS, INC., priority 2017, published 2020)
Where two headings read alike, the source gives them in different places.

Legend:
[1] = biological target: T1, TrxR in HCT116 cells (Homo sapiens, UniProt Q16881); assay: Endogenous TrxR activity in cell lysates (DTNB reduction assay); type: cell-based
T1 sequence (Q16881 1-649): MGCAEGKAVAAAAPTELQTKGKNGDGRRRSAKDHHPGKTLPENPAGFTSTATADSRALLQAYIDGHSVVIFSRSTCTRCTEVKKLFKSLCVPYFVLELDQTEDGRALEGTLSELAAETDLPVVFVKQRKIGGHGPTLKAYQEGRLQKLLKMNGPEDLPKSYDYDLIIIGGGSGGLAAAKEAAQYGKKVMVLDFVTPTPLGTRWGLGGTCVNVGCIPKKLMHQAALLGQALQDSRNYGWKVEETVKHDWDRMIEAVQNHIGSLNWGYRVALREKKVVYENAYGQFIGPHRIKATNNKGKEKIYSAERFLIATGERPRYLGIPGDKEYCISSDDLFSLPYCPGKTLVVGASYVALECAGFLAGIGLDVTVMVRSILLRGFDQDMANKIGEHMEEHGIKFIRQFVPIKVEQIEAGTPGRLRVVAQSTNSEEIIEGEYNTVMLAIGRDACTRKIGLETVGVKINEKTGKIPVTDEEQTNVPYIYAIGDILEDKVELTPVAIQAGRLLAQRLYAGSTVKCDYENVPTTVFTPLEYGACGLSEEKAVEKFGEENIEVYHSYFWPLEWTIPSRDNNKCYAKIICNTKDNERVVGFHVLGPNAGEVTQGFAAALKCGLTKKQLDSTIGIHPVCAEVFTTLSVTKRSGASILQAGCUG

[2] = biological target: T2, recombinant human GAPDH (Homo sapiens, UniProt P04406); assay: In vitro modification of GAPDH by Iniparib and I-NOBA; type: binding
T2 construct: purchased Acris
T2 sequence (P04406 whole entry): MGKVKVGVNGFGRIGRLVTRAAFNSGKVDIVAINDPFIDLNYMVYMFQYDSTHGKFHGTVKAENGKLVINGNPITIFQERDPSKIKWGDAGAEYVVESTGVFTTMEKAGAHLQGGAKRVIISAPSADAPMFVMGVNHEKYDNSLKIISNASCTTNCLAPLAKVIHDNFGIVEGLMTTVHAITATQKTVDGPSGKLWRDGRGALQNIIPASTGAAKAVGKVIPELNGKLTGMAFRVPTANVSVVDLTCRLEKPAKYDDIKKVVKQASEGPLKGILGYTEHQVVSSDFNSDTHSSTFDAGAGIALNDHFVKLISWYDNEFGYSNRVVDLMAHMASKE
Experimental: For biochemical analysis, recombinant human GAPDH (Acris) was first reduced by a 15,000-fold excess of DTT at 56° C. for 30 min, the reducing agent being removed thereafter by chloroform/methanol precipitation. […] Afterwards the samples were submitted or not to another reducing step with 25 mM DTT (56° C., 30 min), and after removal of DTT by chloroform/methanol precipitation, biotinylation of free cysteine sulfhydryl groups of GAPDH was performed with HPDP-biotin (N-[6-(Biotinamido)hexyl]-3′-(2′-pyridyldithio)propionamide) at […] for 2 h at 20° C.
Sample mixtures were then reduced or not with 25 mM DTT (56° C., 30 min). Intact molecular weights were measured by mass spectrometry. Liquid chromatography-electrospray ionization mass spectrometry (LC/MS) was carried out using LTQ-Orbitrap Elite mass spectrometer (Thermo Fisher Scientific) coupled to a Famos Autosampler and an Ultimate Pump (LC-Packing, Dionex). Reverse phase chromatography was performed with a binary buffer system consisting of 0.2% formic acid (buffer A) and 80% acetonitrile in 0.2% formic acid (buffer B). After dilution to 1 pmole/μl in 0.2% formic acid, 1 μl of samples were loaded on a Poros 1 R/H column (75 μm×15 cm, Dionex). […] Mass spectra (m/z 500-2,000) were acquired in the positive ITMS mode with 5 μscans accumulation, a target value of 30,000 and a maximum injection time of 100 ms. The acquired raw files were converted in MassLynx format (Waters) using an home-made program and then were deconvoluted using MaxEnt software (Waters).

[3] = biological target: T3, Prdx1 (Homo sapiens, UniProt Q06830); assay: Monomeric avidin pull-down and Prdx1 immunoprecipitation, identification of Prdx1 modification; type: cell-based; conditions: GSH-depleted HCT116, 100 μM, 4 h
T3 construct: endogenous in cells; host or cells: HCT116 (GSH-depleted with BSO)
T3 sequence (Q06830 2-199 limits assumed): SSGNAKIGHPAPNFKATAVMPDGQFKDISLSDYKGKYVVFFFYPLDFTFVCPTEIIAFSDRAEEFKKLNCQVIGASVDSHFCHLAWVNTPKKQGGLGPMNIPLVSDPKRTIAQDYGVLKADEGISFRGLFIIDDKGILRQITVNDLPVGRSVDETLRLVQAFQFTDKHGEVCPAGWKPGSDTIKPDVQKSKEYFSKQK
Experimental: After separation by SDS-PAGE under reducing conditions and PageBlue® protein staining (Thermo scientific), bands of interest were excised, reduced with DTT, alkylated with iodoacetamide and in-gel digested with trypsin (Promega). Peptides were extracted with acetonitrile 50% in 0.2% formic acid and analyzed by Nano LC-MS/MS after partial evaporation in a speed-vac concentrator. LC-MS/MS experiments were performed on an NanoAcquity UPLC (Waters) coupled to a hybrid LTQ Orbitrap Velos mass spectrometer (Thermo Fisher Scientific) equipped with a nanoelectrospray source. Tryptic digests were loaded onto a nanoAcquity UPLC Trap column (Symmetry C18, 5 μm, 180 μm×20 mm, Waters) and washed with 0.2% formic acid at 20 μL/min for 5 min. Peptides were then eluted on a C18 reverse-phase nanoAcquity column (BEH130 C18, 1.7 μm, 75 μm×250 mm, Waters) with a linear gradient of 7-30% solvent B (H2O/CH3CN/HCOOH, 10:90:0.2, by vol.) for 85 min, 30-90% solvent B for 10 min, and 90% solvent B for 5 min, at a flow rate of 250 nL/min.
The mass spectrometer was operated in the data-dependent mode to automatically switch between MS and MS/MS acquisition. […] The exact parent mass is the ^12C isotope ion mass of the most intense isotopic pattern detected on the high resolution Orbitrap MS parallel scan and included in the MS/MS selection window. […]

[4] = HCT-116, read-out: inhibition of TrxR reductase activity, 100 μM, 4 h, BSO-pretreated HCT116
[5] = HCT-116, read-out: inhibition of TrxR reductase activity, 100 μM, first 2 h of incubation, BSO-pretreated HCT116

Row | Compound | inhibition at 100 µM [1, 4] [%] | inhibition at 100 µM [1, 5] [%] | covalent modification of GAPDH (MS analysis) ([2]; purified GAPDH incubated with compound) | blocking of free thiol groups in GAPDH ([2]; purified GAPDH, biotin-HPDP labeling, streptavidin-HRP blot) | Prdx1 modification after in-cell bio activation [3] | modification of free thiol groups in purified GAPDH [2]
1 | NC(=O)c1ccc(I)c([N+](=O)[O-])c1 [Iniparib, 4-iodo-3-nitrobenzamide] | ~100 | > 90 | not able to covalently modify the protein | ineffective | modifies Cys173 | 
2 | O=C(CCCC[C@@H]1SC[C@@H]2NC(=O)N[C@@H]21)NCCNC(=O)c1ccc(I)c([N+](=O)[O-])c1 [Iniparib-biotin, 4-iodo-3-nitro-N-(2-(5-((3 aS,4S,6aR)-2-oxohexahydro-1H-thieno[3,4-d]imidazol-4-yl)pentanamido)ethyl)benzamide] | ~100 | > 90 |  |  | modifies Cys173 | did not modify free thiol groups
